Assay results published in US20210145000A1, “WEED CONTROL FROM APPLICATIONS OF PYRIDINE CARBOXYLIC ACID HERBICIDES AND ACETYL CoA CARBOXYLASE (ACCase) INHIBITORS” (Dow AgroSciences LLC, priority 2018, published 2021).
“And” between values parts separate entries of the source, which are not always exact repeats. Equal values may be shown once.

Experiments:
Experiment in all cases: Postemergence herbicidal activity, greenhouse, visual injury
Type in all cases: in vivo
[1] = system: winter rape (Brassica napus, BRSNW); conditions: post-emergence, read-out: Effect (% visual injury) Obs
Experimental: (§1) Seeds of the desired test plant species were planted in Sun Gro MetroMix® 306 planting mixture, which typically has a pH of 6.0 to 6.8 and an organic matter content of about 30 percent, in plastic pots with a surface area of 103.2 square centimeters (cm^2). When required to ensure good germination and healthy plants, a fungicide treatment and/or other chemical or physical treatment was applied. The plants were grown for 7-36 days (d) in a greenhouse with an approximate 14-hour (h) photoperiod which was maintained at about 23° C. during the day and 22° C. during the night. Nutrients and water were added on a regular basis and supplemental lighting was provided with overhead metal halide 1000-Watt lamps as necessary. The plants were employed for testing when they reached the second or third true leaf stage.
(§2) An emulsifiable concentrate (EC) formulation containing Compound 1 at 100 gai/L was prepared by combining Compound 1 with 1-butyl-2-pyrrolidinone (Tamisolve NxG; 360.5 g/L), benzyl acetate (544.6 g/L) and Agnique MBL 520L surfactant (52.9 g/L). […] The concentrated stock solution was diluted with an aqueous mixture of 1.5% v/v of Agri-dex crop oil concentrate to provide the appropriate application rates. Compound requirements are based upon a 12 milliliter (mL) application volume at a rate of 187 liters per hectare (L/ha). Spray solutions of the experimental compound mixtures were prepared by adding the stock solutions to the appropriate amount of dilution solution to form a 12 mL spray solution in two-way combinations. Formulated compounds were applied to the plant material with an overhead Mandel track sprayer equipped with 8002E nozzles calibrated to deliver 187 L/ha over an application area of 0.503 square meters (m^2) at a spray height of 18 inches (43 centimeters (cm)) above average plant canopy. Control plants were sprayed in the same manner with the solvent blank. Application rates for component (a) are in g ae/ha, and application rates for component (b) are in g ai/ha.
(§3) The treated plants and control plants were placed in a greenhouse as described above and watered by sub-irrigation to prevent wash-off of the test compounds. After 20-22 d, the condition of the test plants as compared with that of the control plants was determined visually and scored on a scale of 0 to 100 percent where 0 corresponds to no injury and 100 corresponds to complete kill. […] The Colby method was used to determine the herbicidal effects expected from the mixtures.

[2] = system: kochia (Kochia scoparia, KCHSC)
Experimental: as §1, §2, §3

[3] = system: poinsettia (Euphorbia heterophylla, EPHHL)
Experimental: as §1, §2, §3

[4] = system: chickweed (Stellaria media, STEME); conditions: post-emergence, read-out: Effect (% visual injury) Obs
Experimental: as §1, §2, §3

maize (Zea mays, ZEAMX) = conditions: post-emergence, read-out: Effect (% visual injury) Obs
Experimental: (§4) The plants were grown for 7-36 days (d) in a greenhouse with an approximate 14-hour (h) photoperiod which was maintained at about 23° C. during the day and 22° C. during the night. Nutrients and water were added on a regular basis and supplemental lighting was provided with overhead metal halide 1000-Watt lamps as necessary. The plants were employed for testing when they reached the second or third true leaf stage.
(§5) Spray solutions of the experimental compound mixtures were prepared by adding the stock solutions to the appropriate amount of dilution solution to form a 12 mL spray solution in two-way combinations. […] Control plants were sprayed in the same manner with the solvent blank. Application rates for component (a) are in g ae/ha, and application rates for component (b) are in g ai/ha.
as §3

[5] = system: wild pansy (Viola tricolor, VIOTR); conditions: post-emergence, read-out: Effect (% visual injury) Obs
Experimental: as §4, §5, §3

[6] = system: barnyardgrass (Echinochloa crus-galli, ECHCG); conditions: post-emergence, read-out: Effect (% visual injury) Obs
Experimental: as §4, §5, §3

[7] = system: winter wheat (Triticum aestivum, TRZAW); conditions: post-emergence, read-out: Effect (% visual injury) Obs
Experimental: as §4, §5, §3

[8] = system: rice (Oryza sativa, ORYSA); conditions: post-emergence, read-out: Effect (% visual injury) Obs
Experimental: as §4, §5, §3

[9] = system: pigweed (Amaranthus retroflexus, AMARE); conditions: post-emergence, read-out: Effect (% visual injury) Obs
Experimental: as §4, §5, §3

[10] = system: grain sorghum (Sorghum vulgare, SORVU); conditions: post-emergence, read-out: Effect (% visual injury) Obs
Experimental: as §4, §5, §3

[11] = system: sunflower (Helianthus annuus, HELAN); conditions: post-emergence, read-out: Effect (% visual injury) Obs
Experimental: as §4, §5, §3

[12] = system: giant foxtail (Setaria faberi, SETFA); conditions: post-emergence, read-out: Effect (% visual injury) Obs
Experimental: as §4, §5, §3

[13] = system: wild buckwheat (Polygonum convolvulus, POLCO)
Experimental: as §4, §5, §3

[14] = system: velvetleaf (Abutilon theophrasti, ABUTH); conditions: post-emergence, read-out: Effect (% visual injury) Obs
Experimental: as §4, §5, §3

[15] = system: soybean (Glycine max, GLXMA); conditions: post-emergence, read-out: Effect (% visual injury) Obs
Experimental: as §4, §5, §3

[16] = system: common lambsquarters (Chenopodium album L., CHEAL); conditions: post-emergence, read-out: Effect (% visual injury) Obs
Experimental: as §4, §5, §3

[17] = system: wild oat (Avena fatua, AVEFA); conditions: post-emergence, read-out: Effect (% visual injury) Obs
Experimental: as §4, §5, §3

[18] = system: blackgrass (Alopecurus myosuroides, ALOMY); conditions: post-emergence, read-out: Effect (% visual injury) Obs
Experimental: as §4, §5, §3

[19] = system: large crabgrass (Digitaria sanguinalis, DIGSA); conditions: post-emergence, read-out: Effect (% visual injury) Obs
Experimental: as §4, §5, §3

[20] = system: ivyleaf morningglory (Ipomoea hederacea, IPOHE)
Experimental: as §1, §2, §3

[21] = Clodinafop-propargyl 30 g ai/ha

Structure (SMILES): CCCC(=NOCC)C1=C(O)CC(CC(C)SCC)CC1=O (racemic) [Sethoxydim, (±)-(EZ)-2-(1-ethoxyiminobutyl)-5-[2-(ethylthio)propyl]-3-hydroxycyclohex-2-enone]
- plant injury at 140 g/ha [1]: 0%
- Effect (% visual injury) Obs ([2]; Sethoxydim 140 g ai/ha): 0%
- Effect (% visual injury) Obs ([3]; Sethoxydim 140 g ai/ha): 10%
- pest or weed control at 140 g/ha [4]: 10%
- plant injury at 140 g/ha (maize (Zea mays, ZEAMX)): 75%
- pest or weed control at 140 g/ha [5]: 5%
- pest or weed control at 140 g/ha [6]: 50%
- plant injury at 140 g/ha [7]: 60%
- plant injury at 140 g/ha [8]: 75%
- pest or weed control at 140 g/ha [9]: 0%
- plant injury at 140 g/ha [10]: 100%
- plant injury at 140 g/ha [11]: 0%
- pest or weed control at 140 g/ha [12]: 85%
- pest or weed control at 140 g/ha ([13]; Fallopia convolvulus, post-emergence, read-out: Effect (% visual injury) Obs): 0%
- pest or weed control at 140 g/ha [14]: 0%
- plant injury at 140 g/ha [15]: 0%
- pest or weed control at 140 g/ha [16]: 5%
- pest or weed control at 140 g/ha [17]: 85%
- pest or weed control at 140 g/ha [18]: 95%
- pest or weed control at 140 g/ha [19]: 60%

Structure (SMILES): C#CCOC(=O)[C@@H](C)Oc1ccc(Oc2ncc(Cl)cc2F)cc1 [Clodinafop-propargyl, prop-2-ynyl (R)-2-[4-(5-chloro-3-fluoro-2-pyridyloxy)phenoxy]propionate]
- plant injury at 30 g/ha [1, 21]: 0%
- Effect (% visual injury) Obs [20, 21]: 0%
- pest or weed control at 30 g/ha [4, 21]: 0%
- plant injury (maize (Zea mays, ZEAMX); [21]): 100%
- pest or weed control [6, 21]: 100%
- plant injury [7, 21]: 0%
- plant injury [8, 21]: 90%
- pest or weed control [9, 21]: 0%
- plant injury [10, 21]: 100%
- plant injury [11, 21]: 0%
- pest or weed control [12, 21]: 98%
- pest or weed control ([13]; Fallopia convolvulus, post-emergence, Clodinafop-propargyl 30 g ai/ha, read-out: Effect (% visual injury) Obs): 0%
- pest or weed control [14, 21]: 0%
- plant injury [15, 21]: 0%
- pest or weed control [17, 21]: 90%
- pest or weed control [18, 21]: 10%
- pest or weed control [19, 21]: 95%

Structure (SMILES): Nc1c(F)c(-c2ccc3cc[nH]c3c2F)nc(C(=O)O)c1Cl [Compound 1]
- plant injury at 5 g/ha ([1]; Compound 1 5 g ai/ha): 60%
- plant injury at 10 g/ha ([1]; Compound 1 10 g ai/ha): 45%
- Effect (% visual injury) Obs ([20]; Compound 1 5 g ai/ha): 10%
- Effect (% visual injury) Obs ([2]; Compound 1 5 g ai/ha): 60%
- Effect (% visual injury) Obs ([2]; Compound 1 10 g ai/ha): 60%
- Effect (% visual injury) Obs ([3]; Compound 1 5 g ai/ha): 100% and 97%
- Effect (% visual injury) Obs ([3]; Compound 1 10 g ai/ha): 97%
- pest or weed control at 10 g/ha ([4]; Compound 1 10 g ai/ha): 70%
- plant injury at 5 g/ha (maize (Zea mays, ZEAMX); Compound 1 5 g ai/ha): 0%
- plant injury at 10 g/ha (maize (Zea mays, ZEAMX); Compound 1 10 g ai/ha): 0%
- pest or weed control at 10 g/ha ([5]; Compound 1 10 g ai/ha): 10%
- pest or weed control at 10 g/ha ([6]; Compound 1 10 g ai/ha): 60%
- plant injury at 5 g/ha ([7]; Compound 1 5 g ai/ha): 0%
- plant injury at 10 g/ha ([7]; Compound 1 10 g ai/ha): 0%
- plant injury at 5 g/ha ([8]; Compound 1 5 g ai/ha): 0%
- plant injury at 10 g/ha ([8]; Compound 1 10 g ai/ha): 10%
- pest or weed control at 10 g/ha ([9]; Compound 1 10 g ai/ha): 97%
- plant injury at 10 g/ha ([10]; Compound 1 10 g ai/ha): 50%
- plant injury at 5 g/ha ([11]; Compound 1 5 g ai/ha): 95%
- plant injury at 10 g/ha ([11]; Compound 1 10 g ai/ha): 90%
- pest or weed control at 10 g/ha ([12]; Compound 1 10 g ai/ha): 50%
- Effect (% visual injury) Obs ([13]; Compound 1 10 g ai/ha): 75%
- pest or weed control at 10 g/ha ([13]; Fallopia convolvulus, post-emergence, Compound 1 10 g ai/ha, read-out: Effect (% visual injury) Obs): 75%
- pest or weed control at 5 g/ha ([14]; Compound 1 5 g ai/ha): 50%
- pest or weed control at 10 g/ha ([14]; Compound 1 10 g ai/ha): 60%
- plant injury at 5 g/ha ([15]; Compound 1 5 g ai/ha): 100%
- plant injury at 10 g/ha ([15]; Compound 1 10 g ai/ha): 100%
- pest or weed control at 5 g/ha ([16]; Compound 1 5 g ai/ha): 100%
- pest or weed control at 10 g/ha ([16]; Compound 1 10 g ai/ha): 100%
- pest or weed control at 5 g/ha ([17]; Compound 1 5 g ai/ha): 0%
- pest or weed control at 10 g/ha ([17]; Compound 1 10 g ai/ha): 0%
- pest or weed control at 5 g/ha ([18]; Compound 1 5 g ai/ha): 0%
- pest or weed control at 10 g/ha ([18]; Compound 1 10 g ai/ha): 0%
- pest or weed control at 5 g/ha ([19]; Compound 1 5 g ai/ha): 0%
- pest or weed control at 10 g/ha ([19]; Compound 1 10 g ai/ha): 10%
